In patent publication US20230097883A1, “ERGOTHIONEINE PET COMPOUNDS AND METHODS OF USE THEREOF” (VANDERBILT UNIVERSITY, priority 2021, published 2023):

Columns and labels:
GFAP-positive astrocytes = test: GFAP immunohistochemistry of brain sections after ERGO treatment; format: in vivo, mouse; details: ERGO-treated versus non-treated 5XFAD mice
Description: In this study, after the PET imaging, animals (non-treated 5XFAD (n=3) and ERGO-treated 5XFAD mice (n=5)) were perfused, and the brain sections were stained with antibodies against GFAP and IBA1 for neuroinflammatory markers astrocytes and microglia, respectively.
Brains embedded in OCT were cut into sagittal sections (10 μm) using a Tissue-Tek cryostat and mounted onto charged glass slides. Prior to staining, slides were washed with PBS (10 min); then, they were treated with blocking buffer (5% normal goat serum, 0.2% Triton X-100, 0.5% bovine albumin in PBS) for 1 h at room temperature. The treated sections were then incubated overnight at 4° C. with primary anti-GFAP antibody (1:100 dilution, Biolegend San Diego, Calif., USA). Slides were washed with PBS (3×) for 10 min each, the sections were subsequently incubated with secondary antibody goat anti-mouse Alexa Fluor 488 (1:200 dilution, Thermo Fisher Scientific, Carlsbad, Calif., USA) for 30 min at room temperature. The sections were then washed with PBS twice for 10 min and once for 30 min, and coverslipped with an antifade mounting medium (Vector Laboratories, Burlingame, Calif.) before observation under a fluorescence microscope.
Quantitative analysis of the PET imaging and IHC data was performed using imageJ software. […]

[1] = 90-minute dynamic PET scanning of [11C]ERGO biodistribution in the brain of 5XFAD mice; format: in vivo, mouse
Description: The dynamic acquisition was divided into twelve 5 sec frames, four 60 sec frames, five 120 sec frames, three 5 min frames, and six 10 min scans. The data from all possible lines of response (LOR) were saved in the list mode raw data format. The raw data were then binned into 3D sinograms with a span of 3 and ring difference of 47. The images were reconstructed into transaxial slices (128×128×159) with voxel sizes of 0.0815×0.0815×0.0796 cm^3, using the MAP algorithm with 16 subsets, 4 iterations, and a beta of 0.0468. For anatomical co-registration, immediately following the PET scans, the mice received a CT scan in a NanoSPECT/CT (Mediso, Wash. D.C.) at an X-ray beam intensity of 90 mAs and x-ray peak voltage of 45 kVp. The CT images were reconstructed into 170×170×186 voxels at a voxel size of 0.4×0.4×0.4 mm^3. The PET/CT images were uploaded into Amide software (www.sourceforge.com), co-registered to an MRI template made in-house, and volumetric regions-of-interest were drawn around the cortex, hippocampus, striatum, thalamus, and cerebellum in addition to the whole brain. The PET images were normalized to the injected dose, and the time-activity-curves (TACs) of the mean activity within the ROIs were estimated for the entire duration of the scans.
To test the distribution of ERGO non-invasively in vivo, approximately 37 MBq/0.1 mL of [^11C]ERGO probe was given to anesthetized 5XFAD mice (8-month-old, n=4) in single bolus intravenous (I.V.) injection via the lateral tail vein. The administration of the probe was simultaneous with the start of a 90-minute dynamic PET imaging, followed by subsequent CT scan. The PET images were normalized to the injected dose, and the time-activity-curves (TACs) of the mean activity within the ROIs were estimated for the entire duration of the scans. Within 5 min post I.V. injection, [^11C]ERGO can be detected in the brain parenchyma (FIG. 1.5A, top panel). […] Using an age-matched mouse brain template, the positron-emitted signal at different brain regions was quantified using AMIDE software. […]

[2] = Ex-vivo cut-and-count whole-body biodistribution of I.V.-injected [11C]ERGO in WT mice; parameters: species or system mouse; details: for brain concentration: after cardiac perfusion
Description: At 5 or 10 min post injection, anesthetized mice were laid on the shallow tray filled with crushed ice and the thoracic cavity was accessed using a scalpel after making […] mid-line incision from the abdominal area. After careful separation of the liver from the diaphragm, the thoracic opening was stabilized with a retractor. Perfusion was performed as we described in the past. Following removal of air bubbles, approximately 30 mL (pH7.4) of ice-cold PBS buffer is slowly injected in the left ventricle toward the ascending aorta using a 25-G syringe while the right atrium was snipped off using a curved point squeeze snip scissors to facilitate drainage of the systemic venous return. Then, 30 mL of 4% paraformaldehyde (PFA, pH 7.4) was perfused. When completed, tissues were harvested and weighed before counting using the automatic gamma counter (Hidex).
Cohorts of WT mice were injected with [^11C]ERGO probe, followed by cardiac perfusion 5 (n=5), 10 (n=5) and 30 (n=6) minutes after injection before tissues were collected for activity counting.

[3] = about 30 minutes after injection
[4] = initial value (5 minutes post I.V. injection)

C[N+](C)(C)[C@@H](Cc1c[nH]c(=S)[nH]1)C(=O)[O-] [ERGO, L-ergothioneine]
reduction of GFAP-positive astrocytes in the hippocampus (GFAP-positive astrocytes): ~50%

C[N+](C)([11CH3])[C@@H](Cc1c[nH]c(=S)[nH]1)C(=O)[O-] [[^11C]ERGO]
time post I.V. injection at which the probe can be detected in the brain parenchyma ([1]; 8-month-old, approx. 37 MBq/0.1 mL single I.V. bolus): ≤ 5 min | retention of the probe in the brain ([1]; 30 min post radiotracer injection): still remained in the brain | regional distribution of the probe in the brain (PET signal) ([1]; approx. 37 MBq/0.1 mL I.V., 90-min dynamic PET): high concentration in the cerebellum and cortex | blood concentration [2, 3]: 0.33 % ID/g | eyes concentration [2, 3]: 0.52 % ID/g | heart concentration [2, 3]: 0.51 % ID/g | kidneys concentration [2, 3]: 4.2 % ID/g | liver concentration [2, 3]: 2.86 % ID/g | small intestine concentration [2, 3]: 0.64 % ID/g | spleen concentration [2, 3]: 0.97 % ID/g | brain concentration [2, 3]: 0.35 % ID/g | blood concentration [2, 4]: 0.39 % ID/g | eyes concentration [2, 4]: 0.11 % ID/g | heart concentration [2, 4]: 0.13 % ID/g | kidneys concentration [2, 4]: 1.33 % ID/g | liver concentration [2, 4]: 0.61 % ID/g | small intestine concentration [2, 4]: 0.2 % ID/g | spleen concentration [2, 4]: 0.2 % ID/g | brain concentration [2, 4]: 0.13 % ID/g
